{"source": "ChEMBL document CHEMBL4368857", "about": "“New amyloid beta-disaggregating agents: synthesis, pharmacological evaluation, crystal structure and molecular docking of N-(4-((7-chloroquinolin-4-yl)oxy)-3-ethoxybenzyl)amines” (Medchemcomm, 2018)", "key": {"[1]": {"target": "Acetylcholinesterase (Electrophorus electricus) (UniProt O42275)", "sequence (O42275 24-633 limits assumed)": "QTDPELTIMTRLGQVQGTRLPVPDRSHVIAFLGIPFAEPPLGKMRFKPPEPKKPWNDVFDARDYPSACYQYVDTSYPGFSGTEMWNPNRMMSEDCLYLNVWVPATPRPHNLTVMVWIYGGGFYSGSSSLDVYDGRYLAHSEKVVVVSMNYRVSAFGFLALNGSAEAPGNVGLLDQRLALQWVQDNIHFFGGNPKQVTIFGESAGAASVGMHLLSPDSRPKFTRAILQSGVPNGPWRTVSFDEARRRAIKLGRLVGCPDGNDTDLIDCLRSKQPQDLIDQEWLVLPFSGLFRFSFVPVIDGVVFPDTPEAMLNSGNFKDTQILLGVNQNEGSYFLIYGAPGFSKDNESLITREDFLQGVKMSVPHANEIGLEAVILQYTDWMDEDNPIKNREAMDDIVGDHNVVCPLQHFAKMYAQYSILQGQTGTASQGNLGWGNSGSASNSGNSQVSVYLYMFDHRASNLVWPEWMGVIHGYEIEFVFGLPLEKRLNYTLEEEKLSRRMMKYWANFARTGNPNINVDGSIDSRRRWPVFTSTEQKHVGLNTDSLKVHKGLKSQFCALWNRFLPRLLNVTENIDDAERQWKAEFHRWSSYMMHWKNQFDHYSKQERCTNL", "assay": "Potency index, ratio of donepezil effect to test compound effect for inhibition of electric eel AChE-induced amyloid beta (1 to 42) aggregation"}, "[2]": {"assay": "Antioxidant activity assessed as trolox equivalent of AAPH-induced radical scavenging activity at 1 to 8 uM pretreated for 15 mins followed by AAPH addition measured at 1 min interval for 80 mins by ORAC-FL assay", "type": "functional"}, "[3]": {"assay": "Metal chelating activity assessed as Al3+-compound complex formation at 30 uM after 30 mins by UV-Vis spectroscopic method"}, "[4]": {"assay": "Metal chelating activity assessed as Fe2+-compound complex formation by measuring shift in maximum absorption wavelength at 30 uM after 30 mins by UV-Vis spectroscopic method"}, "[5]": {"target": "T1, Amyloid-beta precursor protein (Homo sapiens, UniProt P05067)", "T1 sequence (P05067 whole entry)": "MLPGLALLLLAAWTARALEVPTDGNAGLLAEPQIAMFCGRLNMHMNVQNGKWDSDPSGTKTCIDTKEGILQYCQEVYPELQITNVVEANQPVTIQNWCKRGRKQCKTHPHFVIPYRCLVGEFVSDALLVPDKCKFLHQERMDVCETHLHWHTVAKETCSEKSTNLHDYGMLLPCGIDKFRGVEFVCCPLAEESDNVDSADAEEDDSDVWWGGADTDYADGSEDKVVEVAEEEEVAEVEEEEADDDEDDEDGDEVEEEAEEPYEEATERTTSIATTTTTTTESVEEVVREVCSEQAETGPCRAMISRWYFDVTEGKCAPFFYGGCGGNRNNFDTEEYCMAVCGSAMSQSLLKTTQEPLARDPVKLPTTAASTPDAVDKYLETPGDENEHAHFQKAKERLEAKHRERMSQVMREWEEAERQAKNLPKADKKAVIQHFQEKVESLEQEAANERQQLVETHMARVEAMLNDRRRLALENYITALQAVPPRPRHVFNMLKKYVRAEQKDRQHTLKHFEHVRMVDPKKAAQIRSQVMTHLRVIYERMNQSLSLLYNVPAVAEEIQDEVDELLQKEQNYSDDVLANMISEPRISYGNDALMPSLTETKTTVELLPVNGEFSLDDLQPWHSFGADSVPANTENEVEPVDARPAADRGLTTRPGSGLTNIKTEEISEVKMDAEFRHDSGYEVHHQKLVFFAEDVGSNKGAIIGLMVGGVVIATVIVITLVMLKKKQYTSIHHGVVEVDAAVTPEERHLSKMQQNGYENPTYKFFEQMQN", "assay": "Inhibition of HFIP-pretreated amyloid beta (1 to 42) (unknown origin) self-induced aggregation at 50 uM after 48 hrs by thioflavin T-based fluorometric assay relative to control"}, "[6]": {"target": "T1, Amyloid-beta precursor protein", "assay": "Inhibition of HFIP-pretreated amyloid beta (1 to 42) (unknown origin) self-induced aggregation after 48 hrs by thioflavin T-based fluorometric assay"}, "[7]": {"target": "T1, Amyloid-beta precursor protein", "assay": "Inhibition of HFIP-pretreated amyloid beta (1 to 42) (unknown origin) self-induced aggregation at 25 uM after 48 hrs by thioflavin T-based fluorometric assay relative to control"}, "[8]": {"assay": "Metal chelating activity assessed as stoichiometric ratio of Cu2+-compound complex at 30 uM after 30 mins by Job plot analysis"}, "[9]": {"target": "T1, Amyloid-beta precursor protein", "assay": "Inhibition of HFIP-pretreated amyloid beta (1 to 42) (unknown origin) self-induced aggregation at 75 uM after 48 hrs by thioflavin T-based fluorometric assay relative to control"}, "[10]": {"assay": "Metal chelating activity assessed as Zn2+-compound complex formation at 30 uM after 30 mins by UV-Vis spectroscopic method"}, "[11]": {"target": "T1, Amyloid-beta precursor protein", "assay": "Disaggregation of self-induced amyloid beta (1 to 42) (unknown origin) assessed as appearance of sparse fibrils at 50 uM after 48 hrs by transmission electron microscopic analysis"}, "[12]": {"assay": "Metal chelating activity assessed as Cu2+-compound complex formation by measuring shift in maximum absorption wavelength at 30 uM after 30 mins by UV-Vis spectroscopic method"}, "[13]": {"assay": "Inhibition of Cu2+-induced amyloid beta (1 to 42 residues) (unknown origin) aggregation at 50 uM after 24 hrs by thioflavin T-based fluorometric assay relative to control"}, "[14]": {"assay": "Metal chelating activity assessed as Zn2+-compound complex formation by measuring shift in maximum absorption wavelength at 30 uM after 30 mins by UV-Vis spectroscopic method"}, "[15]": {"assay": "Metal chelating activity assessed as Al3+-compound complex formation by measuring shift in maximum absorption wavelength at 30 uM after 30 mins by UV-Vis spectroscopic method"}}, "note": "The source made the active and inactive calls. The calls are words filed in the database; no cut-off is given here."}
{"smiles": "CCOc1cc(CNc2ccccc2)ccc1Oc1ccnc2cc(Cl)ccc12", "values": [{"measurement": "Ratio", "setting": "[1]", "value": "> 2"}, {"measurement": "Activity (umolequiv/umol)", "setting": "[2]", "value": 2.72}, {"measurement": "Activity", "setting": "[3]", "value": "Active"}, {"measurement": "Activity", "setting": "[4]", "value": 305, "unit": "nm"}, {"measurement": "inhibition", "setting": "[5]", "value": 53.6, "unit": "%"}, {"measurement": "IC50", "setting": "[6]", "value": 44.5, "unit": "µM"}, {"measurement": "inhibition", "setting": "[7]", "value": 37.1, "unit": "%"}, {"measurement": "Ratio", "setting": "[8]", "value": 0.5}, {"measurement": "inhibition", "setting": "[9]", "value": 3.37, "unit": "%"}, {"measurement": "Activity", "setting": "[10]", "value": "Active"}, {"measurement": "Activity", "setting": "[11]", "value": "Active"}, {"measurement": "Activity", "setting": "[12]", "value": 305, "unit": "nm"}, {"measurement": "inhibition", "setting": "[13]", "value": 22.4, "unit": "%"}]}
{"smiles": "CCOc1cc(CNc2ccc(F)cc2F)ccc1Oc1ccnc2cc(Cl)ccc12", "values": [{"measurement": "Activity (umolequiv/umol)", "setting": "[2]", "value": 2.37}, {"measurement": "inhibition", "setting": "[5]", "value": 27.8, "unit": "%"}]}
{"smiles": "CCOc1cc(CNc2ccc(C)cc2)ccc1Oc1ccnc2cc(Cl)ccc12", "values": [{"measurement": "Activity (umolequiv/umol)", "setting": "[2]", "value": 2.28}, {"measurement": "inhibition", "setting": "[5]", "value": 46.8, "unit": "%"}]}
{"smiles": "CCOc1cc(CNc2ccc(OC)cc2)ccc1Oc1ccnc2cc(Cl)ccc12", "values": [{"measurement": "Ratio", "setting": "[1]", "value": "> 2"}, {"measurement": "Activity (umolequiv/umol)", "setting": "[2]", "value": 1.95}, {"measurement": "Activity", "setting": "[4]", "value": 305, "unit": "nm"}, {"measurement": "inhibition", "setting": "[5]", "value": 53.7, "unit": "%"}, {"measurement": "IC50", "setting": "[6]", "value": 46.4, "unit": "µM"}, {"measurement": "inhibition", "setting": "[7]", "value": 26.7, "unit": "%"}, {"measurement": "Ratio", "setting": "[8]", "value": 0.8}, {"measurement": "inhibition", "setting": "[9]", "value": 6.89, "unit": "%"}, {"measurement": "Activity", "setting": "[14]", "value": 304, "unit": "nm"}, {"measurement": "Activity", "setting": "[11]", "value": "Active"}, {"measurement": "Activity", "setting": "[12]", "value": 304, "unit": "nm"}, {"measurement": "inhibition", "setting": "[13]", "value": 32.7, "unit": "%"}, {"measurement": "Activity", "setting": "[15]", "value": 304, "unit": "nm"}]}
{"smiles": "CCOc1cc(CNc2ccccn2)ccc1Oc1ccnc2cc(Cl)ccc12", "values": [{"measurement": "Activity (umolequiv/umol)", "setting": "[2]", "value": 0.55}, {"measurement": "inhibition", "setting": "[5]", "value": 41.5, "unit": "%"}]}
{"smiles": "COc1cc(/C=C/C(=O)CC(=O)/C=C/c2ccc(O)c(OC)c2)ccc1O", "values": [{"measurement": "inhibition", "setting": "[13]", "value": 52.9, "unit": "%"}]}
{"smiles": "CCOc1cc(CNc2cccc(C)n2)ccc1Oc1ccnc2cc(Cl)ccc12", "values": [{"measurement": "Activity (umolequiv/umol)", "setting": "[2]", "value": 0.87}, {"measurement": "inhibition", "setting": "[5]", "value": 41.6, "unit": "%"}]}
{"smiles": "CCOc1cc(CNc2cccc(C(F)(F)F)c2)ccc1Oc1ccnc2cc(Cl)ccc12", "values": [{"measurement": "Activity (umolequiv/umol)", "setting": "[2]", "value": 1.56}, {"measurement": "inhibition", "setting": "[5]", "value": 30, "unit": "%"}]}
